From paper doi:10.1101/2021.06.27.450110v1 (bioRxiv, 2021)
Where a SMILES comes first, the peptide text is derived from it. Bridges are numbered along the chain shown (N, C = ends).

What was measured:
[1] = system: red blood cells (RBCs); experiment: Red blood cell hemolysis assay; assay type: cell-based, human; conditions: for fold less hemolytic than native tachyplesin I and polyphemusin I: from RBC CC50; for lysis of RBCs: incubation with 128 µM peptide, 37 °C, 1 h
[2] = system: BMMs; experiment: Flow cytometry to measure peptide internalization; assay type: cell-based, mouse; conditions: Alexa Fluor 488-labelled peptides, 1 h
[3] = system: BMMs infected with EC958; experiment: Microscopy to determine location of peptides inside infected BMMs; assay type: cell-based, mouse; conditions: 8 µM A488-labelled peptide, 1 h, fixed cells, confocal microscopy
[4] = system: EC958 WT; experiment: Co-treatment of planktonic bacteria with peptides and zinc; assay type: cell-based, Escherichia coli; conditions: 0.1 mM zinc
[5] = system: EC958ΔzntA; experiment: as above; assay type: cell-based, Escherichia coli; conditions: 0.1 mM zinc
[6] = system: Burkholderia pseudomallei strains MSHR1364, MSHR2154 and MSHR10517; conditions: 24 h

Compound	fold less hemolytic than native tachyplesin I and polyphemusin I [1]	lysis of RBCs [1] [%]	concentration required to internalize 50% of cells compared to tachyplesin I [2]	Antimicrobial activity: MIC, Burkholderia pseudomallei [6] [µM]	further results
CC(C)[C@@H]1NC(=O)[C@H](CCCNC(=N)N)NC(=O)[C@H](Cc2ccccc2)NC(=O)[C@@H](NC(=O)[C@H](Cc2c[nH]c3ccccc23)NC(=O)[C@@H](N)CCCCN)CSSC[C@@H](C(=O)N[C@@H](CCCNC(=N)N)C(N)=O)NC(=O)[C@H](CCCNC(=N)N)NC(=O)[C@H](CCCNC(=N)N)NC(=O)[C@H](Cc2ccc(O)cc2)NC(=O)[C@@H]2CSSC[C@H](NC1=O)C(=O)N[C@@H](Cc1ccc(O)cc1)C(=O)N[C@@H](CCCNC(=N)N)C(=O)NCC(=O)N[C@@H](C)C(=O)N2 [[I11A]tachyplesin I] (H-KWCFRVCYRGACYRRCR-NH2; disulfide 3-16, 7-12)	at least 3 fold	< 50	> ten-fold lower concentrations		intracellular localization in BMMs infected with EC958 [3]: locates mainly within vesicles
O=S(=O)([O-])[O-].[Zn+2] [zinc, zinc sulfate]					growth of EC958 WT with zinc alone [4]: does not significantly inhibit; growth of EC958ΔzntA with zinc alone [5]: does not significantly inhibit
CC(C)[C@@H]1NC(=O)[C@H](CCCNC(=N)N)NC(=O)[C@H](Cc2ccccc2)NC(=O)[C@@H](NC(=O)[C@H](Cc2c[nH]c3ccccc23)NC(=O)[C@@H](N)CCCCN)CSSC[C@@H](C(=O)N[C@@H](CCCNC(=N)N)C(N)=O)NC(=O)[C@H](CCCNC(=N)N)NC(=O)[C@H](CCCNC(=N)N)NC(=O)[C@H](Cc2ccc(O)cc2)NC(=O)[C@@H]2CSSC[C@H](NC1=O)C(=O)N[C@@H](Cc1ccc(O)cc1)C(=O)N[C@@H](CCCNC(=N)N)C(=O)NCC(=O)N[C@@H](CO)C(=O)N2 [[I11S]tachyplesin I] (H-KWCFRVCYRGSCYRRCR-NH2; disulfide 3-16, 7-12)	at least 3 fold	< 50	> ten-fold lower concentrations		
CC[C@H](C)[C@@H]1NC(=O)CNC(=O)[C@H](CCCNC(=N)N)NC(=O)[C@H](Cc2ccc(O)cc2)NC(=O)[C@@H]2CSSC[C@H](NC1=O)C(=O)N[C@@H](Cc1ccc(O)cc1)C(=O)N[C@@H](CCCNC(=N)N)C(=O)N[C@@H](CCCNC(=N)N)C(=O)N[C@H](C(=O)N[C@@H](CCCNC(=N)N)C(N)=O)CSSC[C@H](NC(=O)[C@H](Cc1c[nH]c3ccccc13)NC(=O)[C@@H](N)CCCCN)C(=O)N[C@@H](Cc1ccccc1)C(=O)N[C@@H](CCCNC(=N)N)C(=O)N[C@@H](C(C)C)C(=O)N2 [Tachyplesin I] (H-KWCFRVCYRGICYRRCR-NH2; disulfide 3-16, 7-12)				> 64	
CC(C)C[C@H](NC(=O)[C@H](CCCNC(=N)N)NC(=O)CNC(=O)CNC(=O)[C@@H](N)CCCNC(=N)N)C(=O)N[C@H]1CSSC[C@@H](C(=O)N[C@H](C(=O)NCC(=O)N[C@@H](CCCNC(=N)N)C(N)=O)C(C)C)NC(=O)[C@H](C(C)C)NC(=O)[C@@H]2CSSC[C@H](NC(=O)[C@H](Cc3ccc(O)cc3)NC1=O)C(=O)N[C@@H](CCCNC(=N)N)C(=O)N[C@@H](CCCNC(=N)N)C(=O)N[C@@H](CCCNC(=N)N)C(=O)N[C@@H](Cc1ccccc1)C(=O)N2 [Protegrin-I]				> 64	
CC(C)[C@@H]1NC(=O)[C@H](CCCNC(=N)N)NC(=O)[C@H](Cc2ccccc2)NC(=O)[C@@H](NC(=O)[C@H](Cc2c[nH]c3ccccc23)NC(=O)[C@H](CCCNC(=N)N)NC(=O)[C@@H](N)CCCNC(=N)N)CSSC[C@@H](C(=O)N[C@@H](CCCNC(=N)N)C(N)=O)NC(=O)[C@H](CCCCN)NC(=O)[C@H](CCCNC(=N)N)NC(=O)[C@H](Cc2ccc(O)cc2)NC(=O)[C@@H]2CSSC[C@H](NC1=O)C(=O)N[C@@H](Cc1ccc(O)cc1)C(=O)N[C@@H](CCCNC(=N)N)C(=O)NCC(=O)N[C@@H](Cc1ccccc1)C(=O)N2 [Polyphemusin-I] (H-RRWCFRVCYRGFCYRKCR-NH2; disulfide 4-17, 8-13)				> 64	
